Laboratory results as given in patent US20070264324A1, “Use of Vegetable Anthraquinone Derivatives and Vegetable Polysaccharides For Treating Human Immunodeficiency Virus (HIV)” (priority 2004, published 2007).

Test system: TC740 cells
Type: cell-based
Conditions: 72 h
Method: The present invention relates to using emodin and RRP to inhibit HIV in an exogenous (however endocellular) environment, in order to attest their anti-HIV effectiveness. More specifically, the invention includes: • 1. Preparing emodin and RRP solutions with various concentrations (70-98% for emodin, and 80-95% for RRP). • 2. Culturing test subjects containing 100 μL of cells using cell incubator under 37° C. and 5% CO2 for 24 hours, forming monolayer on each culture media. • 3. Testing the toxicity of the agents: apply Rheum rhaponticum extractions to the monolayer on culture medium. Maintain the culture media under 37° C. and 5% CO2 for 72 hours, and observe the monolayer for cellular viability. […] These standard concentrations of emodin range between 70% and 98%, and those of RRP range between 80% and 95%. • 4. Testing the anti-HIV effectiveness of emodin and RRP: apply a specific concentration of HIV to those culture medium containing viable cells and already applied with emodin and/or RRP. Observe the viability of cells, and compare them with those in the control groups.
3. Cytotoxicity test: apply an emodin/RRP mixture with a concentration between 1600 μg/mL and 25 μg/mL to the culture medium, and maintain the medium under […] for 72 hours before observing.

Structure (SMILES): Cc1cc(O)c2c(c1)C(=O)c1cc(O)cc(O)c1C2=O [emodin]
- standard concentrations that do not affect the growth of cells: 70% and 98%
